Data published in patent US20230226008A1 (Massachusetts Eye and Ear Infirmary, priority 2020, published 2023).

Tests used:
[1] = test system: organotypic nasal polyp explants
[2] = target: P-gp (Homo sapiens, UniProt P08183); conditions: literature reference 29; cited from earlier work
Chain of P-gp (P08183 whole entry): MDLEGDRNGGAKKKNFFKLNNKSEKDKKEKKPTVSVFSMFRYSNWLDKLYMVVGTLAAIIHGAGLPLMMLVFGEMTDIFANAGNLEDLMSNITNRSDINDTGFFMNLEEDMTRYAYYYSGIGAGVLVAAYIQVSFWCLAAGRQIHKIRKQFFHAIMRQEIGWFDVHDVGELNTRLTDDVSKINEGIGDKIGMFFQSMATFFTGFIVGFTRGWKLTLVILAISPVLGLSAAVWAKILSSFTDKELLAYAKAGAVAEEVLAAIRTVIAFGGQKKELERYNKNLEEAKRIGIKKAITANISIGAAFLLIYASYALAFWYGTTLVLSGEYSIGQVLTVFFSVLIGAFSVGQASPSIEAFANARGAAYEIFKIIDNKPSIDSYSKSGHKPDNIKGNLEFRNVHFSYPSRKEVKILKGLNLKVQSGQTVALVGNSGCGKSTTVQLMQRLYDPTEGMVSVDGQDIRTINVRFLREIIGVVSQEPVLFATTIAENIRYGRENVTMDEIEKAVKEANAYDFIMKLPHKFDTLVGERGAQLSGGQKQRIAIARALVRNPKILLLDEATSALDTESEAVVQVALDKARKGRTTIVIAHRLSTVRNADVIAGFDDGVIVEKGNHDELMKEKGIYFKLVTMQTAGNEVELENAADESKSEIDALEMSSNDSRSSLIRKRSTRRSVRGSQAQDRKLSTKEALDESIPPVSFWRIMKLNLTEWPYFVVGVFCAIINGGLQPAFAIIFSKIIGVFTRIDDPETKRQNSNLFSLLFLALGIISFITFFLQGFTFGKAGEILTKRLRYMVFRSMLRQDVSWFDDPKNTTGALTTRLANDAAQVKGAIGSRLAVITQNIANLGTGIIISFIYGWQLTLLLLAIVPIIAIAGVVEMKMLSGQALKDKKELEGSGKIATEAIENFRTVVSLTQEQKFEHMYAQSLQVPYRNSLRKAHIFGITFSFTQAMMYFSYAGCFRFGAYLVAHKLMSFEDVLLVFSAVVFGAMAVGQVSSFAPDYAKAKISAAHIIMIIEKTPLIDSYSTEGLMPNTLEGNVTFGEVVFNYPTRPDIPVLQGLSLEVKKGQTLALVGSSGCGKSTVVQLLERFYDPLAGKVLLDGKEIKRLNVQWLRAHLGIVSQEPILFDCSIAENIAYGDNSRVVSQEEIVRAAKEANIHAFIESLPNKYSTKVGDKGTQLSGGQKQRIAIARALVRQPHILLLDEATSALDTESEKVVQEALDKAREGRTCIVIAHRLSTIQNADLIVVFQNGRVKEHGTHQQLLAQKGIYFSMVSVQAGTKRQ

| SMILES | tissue mometasone retention in polyps versus lower P-gp expressing turbinates [1] | reduction in mometasone retention between the lowest and highest P-gp expressing polyp explants ([1]; human, not told, 60 min) | P-gp substrate status ([1]; not told) | affinity for P-gp [2] |
| --- | --- | --- | --- | --- |
| C[C@@H]1C[C@H]2[C@@H]3CCC4=CC(=O)C=C[C@]4(C)[C@@]3(Cl)[C@@H](O)C[C@]2(C)[C@@]1(OC(=O)c1ccco1)C(=O)CCl [mometasone, [(8S,9R,10S,11S,13S,14S,16R,17R)-9-chloro-17-(2-chloroacetyl)-11-hydroxy-10,13,16-trimethyl-3-oxo-6,7,8,11,12,14,15,16-octahydrocyclopenta[a]phenanthren-17-yl]furan-2-carboxylate] | significantly lower | ~6 fold | substrate of P-gp | – |
| CCCC1O[C@@H]2C[C@H]3[C@@H]4CCC5=CC(=O)C=C[C@]5(C)[C@H]4[C@@H](O)C[C@]3(C)[C@]2(C(=O)CO)O1 (stereo partly shown) [budesonide] | – | – | – | high affinity |
